Assay results published in PMC6271714, “Hypotensive Effects and Angiotensin-Converting Enzyme Inhibitory Peptides of Reishi (Ganoderma lingzhi) Auto-Digested Extract” (Molecules, 2014).
Where a SMILES comes first, the peptide text is derived from it.

Molecular target: T1, Angiotensin-Converting Enzyme (ACE) (Homo sapiens, UniProt P12821)
T1 construct: purchased Dojindo Laboratories ACE Kit-WST A502
Assay: ACE inhibition assay (Dojindo ACE Kit-WST A502)
Type: biochemical
Settings: synthesized peptides, six concentrations 10 to 100 μg/mL; read-out: IC50 Values (μM), ACE inhibition capacity
Experimental: Dojindo ACE Kit-WST A502 was used for testing the ACE-inhibitory activity. Principles of the kit were described in details in a previous report. Testing procedures were run strictly according to the manufacturer’s instructions using a 96-well plate, and inhibition rate was calculated based on the comparison of optical absorbance of sample-treated wells (As), control wells (Ac) and blank wells (Ab) as in the equation below. Absorbance was measured at 450 nm using microplate reader-Biotek-ELX800 (BioTek, Winooski, VT, USA): Inhibition rate (%) = [(Ac − As)/(Ac − Ab)]×100 (1)
For the peptides, six different concentrations of each peptide, ranging from 10 to 100 μg/mL, were assayed, and dose-response curves were plotted for the calculation of the IC50 values. IPP has been proven to be an ACE inhibitor [34] and thus was used as positive control (at concentrations ranging from 0.15 to 5 μg/mL).

T1 sequence (P12821 30-1306, species assumed): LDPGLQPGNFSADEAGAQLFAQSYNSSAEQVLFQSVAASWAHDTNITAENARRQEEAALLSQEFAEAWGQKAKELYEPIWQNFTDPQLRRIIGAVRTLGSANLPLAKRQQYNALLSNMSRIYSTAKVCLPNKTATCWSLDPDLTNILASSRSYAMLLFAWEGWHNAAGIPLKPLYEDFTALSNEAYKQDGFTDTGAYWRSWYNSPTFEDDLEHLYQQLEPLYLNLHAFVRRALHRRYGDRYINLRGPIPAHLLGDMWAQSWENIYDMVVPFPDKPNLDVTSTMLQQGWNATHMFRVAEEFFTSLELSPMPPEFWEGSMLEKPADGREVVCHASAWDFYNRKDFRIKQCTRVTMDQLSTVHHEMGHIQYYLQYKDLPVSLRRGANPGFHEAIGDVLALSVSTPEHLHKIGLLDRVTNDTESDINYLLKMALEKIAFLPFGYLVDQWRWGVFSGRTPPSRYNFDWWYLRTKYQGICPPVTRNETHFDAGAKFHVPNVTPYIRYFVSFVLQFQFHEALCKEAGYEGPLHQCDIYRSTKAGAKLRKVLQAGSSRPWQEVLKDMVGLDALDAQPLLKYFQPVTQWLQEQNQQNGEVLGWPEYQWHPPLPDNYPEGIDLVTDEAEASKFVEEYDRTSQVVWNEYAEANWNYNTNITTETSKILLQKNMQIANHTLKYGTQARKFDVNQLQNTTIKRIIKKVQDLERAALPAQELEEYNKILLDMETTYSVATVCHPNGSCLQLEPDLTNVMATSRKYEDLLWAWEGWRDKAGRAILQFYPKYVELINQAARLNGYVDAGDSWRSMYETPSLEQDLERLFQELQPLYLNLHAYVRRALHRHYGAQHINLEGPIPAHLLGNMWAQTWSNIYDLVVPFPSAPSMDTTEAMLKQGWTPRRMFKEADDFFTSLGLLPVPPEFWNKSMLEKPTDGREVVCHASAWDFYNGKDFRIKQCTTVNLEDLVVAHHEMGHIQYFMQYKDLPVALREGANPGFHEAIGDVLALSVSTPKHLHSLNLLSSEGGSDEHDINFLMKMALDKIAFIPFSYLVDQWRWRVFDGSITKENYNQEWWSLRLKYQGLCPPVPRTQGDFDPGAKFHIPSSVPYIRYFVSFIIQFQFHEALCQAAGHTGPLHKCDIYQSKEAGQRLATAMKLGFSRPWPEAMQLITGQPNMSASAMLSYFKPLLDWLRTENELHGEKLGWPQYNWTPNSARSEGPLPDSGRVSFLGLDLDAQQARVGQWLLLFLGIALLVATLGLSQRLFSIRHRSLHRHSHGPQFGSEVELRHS

Row | IC50 [µM] | Structure (SMILES)
1 | > 200 | CC(C)C[C@H](NC(=O)[C@H](C)N)C(=O)O [Ala-Leu] (H-Ala-Leu-OH)
2 | 163 | C[C@H](N)C(=O)N[C@@H](Cc1ccc(O)cc1)C(=O)O [Ala-Tyr] (H-Ala-Tyr-OH)
3 | > 500 | CC(C)C[C@H](NC(=O)[C@@H]1CCCN1C(=O)CN)C(=O)O [Gly-Pro-Leu] (H-Gly-Pro-Leu-OH)
4 | > 200 | CC[C@H](C)[C@H](NC(=O)[C@@H](N)CO)C(=O)O [Ser-Ile] (H-Ser-Ile-OH)
5 | > 200 | CC(C)C[C@H](NC(=O)[C@@H](N)CO)C(=O)O [Ser-Leu] (H-Ser-Leu-OH; N-terminus and C-terminus assumed)
6 | > 200 | CC(C)C[C@H](NC(=O)[C@@H](N)[C@@H](C)O)C(=O)O [Thr-Leu] (H-Thr-Leu-OH)

Second part, the compound before the results:

Row | Structure (SMILES) | IC50 [µM]
7 | CC[C@H](C)[C@H](NC(=O)[C@H](CO)NC(=O)[C@@H](N)CC(N)=O)C(=O)O [Asn-Ser-Ile] (H-Asn-Ser-Ile-OH) | 342
8 | CC[C@H](C)[C@H](N)C(=O)N[C@@H](CCCNC(=N)N)C(=O)O [Ile-Arg] | 73.7
9 | CC[C@H](C)[C@H](N)C(=O)N1CCC[C@H]1C(=O)N[C@H](C(=O)O)[C@@H](C)O [Ile-Pro-Thr] (H-Ile-Pro-Thr-OH) | 73.1
10 | CC(C)[C@H](NC(=O)[C@@H](N)CCCCN)C(=O)N1CCC[C@H]1C(=O)O [Lys-Val-Pro] (H-Lys-Val-Pro-OH) | > 500
11 | N[C@@H](CO)C(=O)N[C@@H](Cc1ccc(O)cc1)C(=O)O [Ser-Tyr] (H-Ser-Tyr-OH) | 94.7
